MIC data for nine molecules are collected here from patent US10106544B2, “1,2-dihydro-3H-pyrrolo[1,2-C]imidazol-3-one derivatives and their use as antibacterial agents” (priority 2014, dated 2018).

Common to all, as to assay: Bacterial growth minimal inhibitory concentration (microdilution, cation-adjusted Mueller-Hinton Broth)
What all share (assay type): cell-based
On the technique in general: Dilution methods test growth across graded concentrations, often in twofold steps.

In one experiment the test system is K. pneumoniae A-651. The conditions noted are these: Klebsiella pneumoniae, A651; multiply-resistant strain (in particular quinolone-resistant); read-out: MIC for K. Pneumoniae A-651. In outline: (§1)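 Broth microdilution in cation-adjusted Mueller-Hinton Broth per CLSI M7-A7, MIC in mg/L. K. pneumoniae A-651 is multiply resistant, including to quinolones. E. coli ATCC25922 and P. aeruginosa ATCC27853 are quinolone-sensitive.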

Another experiment has as its system P. aeruginosa ATCC27853. The conditions noted are these: Pseudomonas aeruginosa, ATCC27853, quinolone-sensitive strain; read-out: MIC for P. aeruginosa ATCC27853. Summed up:
as §1

The next experiment relates to E. coli ATCC25922. As to conditions: Escherichia coli, ATCC25922; quinolone-sensitive strain; read-out: MIC for E. coli ATCC25922. In outline:
as §1

Values after ≈ are worked out from the molar mass of the structure shown. Where only a bound is given, the exact number is not on record here.

The term MIC denotes the least concentration at which growth counts as inhibited.

On to `CC(C)(O)c1ncc(C#Cc2cc3n(c2)C(=O)N(CC[C@](C)(C(=O)NO)S(C)(=O)=O)C3)s1` [Example 76, (R)-N-hydroxy-4-(6-((2-(2-hydroxypropan-2-yl)thiazol-5-yl)ethynyl)-3-oxo-1H-pyrrolo[1,2-c]imidazol-2(3H)-yl)-2-methyl-2-(methylsulfonyl)butanamide], for which the MIC with K. pneumoniae A-651 turned out to be 2 µg/mL (≈ 4.16 µM); in the experiment on P. aeruginosa ATCC27853 it was 2 µg/mL (≈ 4.16 µM); in the experiment on E. coli ATCC25922, 1 µg/mL (≈ 2.08 µM).

As for `C[C@@]1(C#CC#Cc2cc3n(c2)C(=O)N(CC[C@](C)(C(=O)NO)S(C)(=O)=O)C3)C[C@H]1CO` [Example 36, (R)-N-hydroxy-4-(6-(((1R,2R)-2-(hydroxymethyl)-1-methylcyclopropyl)buta-1,3-diyn-1-yl)-3-oxo-1H-pyrrolo[1,2-c]imidazol-2(3H)-yl)-2-methyl-2-(methylsulfonyl)butanamide], the values for the minimum inhibitory concentration (MIC) with K. pneumoniae A-651, in the experiment on P. aeruginosa ATCC27853 and with E. coli ATCC25922 were 0.25 µg/mL (≈ 0.559 µM), 0.5 µg/mL (≈ 1.12 µM) and 0.125 µg/mL (≈ 0.279 µM), respectively.

Consider `C[C@@](CCN1Cc2cc(C#Cc3ccc(OCCO)cc3)cn2C1=O)(C(=O)NO)S(C)(=O)=O` [Example 22, (R)-N-hydroxy-4-(6-((4-(2-hydroxyethoxy)phenyl)ethynyl)-3-oxo-1H-pyrrolo[1,2-c]imidazol-2(3H)-yl)-2-methyl-2-(methylsulfonyl)butanamide], for which the minimal inhibitory concentration (MIC) in the experiment with K. pneumoniae A-651 was found to be 0.5 µg/mL (≈ 1.05 µM); in the experiment with P. aeruginosa ATCC27853 it was 1 µg/mL (≈ 2.1 µM); in the experiment on E. coli ATCC25922 it was 0.125 µg/mL (≈ 0.263 µM).

Consider `COC(=O)c1ccc(-c2cc3n(c2)C(=O)N(CC[C@](C)(C(=O)NO)S(C)(=O)=O)C3)c(F)c1` [Example 47, methyl (R)-3-fluoro-4-(2-(4-(hydroxyamino)-3-methyl-3-(methylsulfonyl)-4-oxobutyl)-3-oxo-2,3-dihydro-1H-pyrrolo[1,2-c]imidazol-6-yl)benzoate], for which the MIC was 0.25 µg/mL (≈ 0.535 µM) in the experiment on K. pneumoniae A-651, 8 µg/mL (≈ 17.1 µM) in the experiment with P. aeruginosa ATCC27853 and no more than 0.063 µg/mL in the experiment with E. coli ATCC25922.

As for `C[C@@](CCN1Cc2cc(C#Cc3ccc(NC(=O)CO)c(F)c3)cn2C1=O)(C(=O)NO)S(C)(=O)=O` [Example 21, (R)-4-(6-((3-fluoro-4-(2-hydroxyacetamido)phenyl)ethynyl)-3-oxo-1H-pyrrolo[1,2-c]imidazol-2(3H)-yl)-N-hydroxy-2-methyl-2-(methylsulfonyl)butanamide], the MIC with K. pneumoniae A-651 turned out to be 1 µg/mL (≈ 1.97 µM); in the experiment on P. aeruginosa ATCC27853, 1 µg/mL (≈ 1.97 µM); with E. coli ATCC25922, 0.25 µg/mL (≈ 0.494 µM).

For `Cc1ccc(-c2cc3n(c2)C(=O)N(CCC(C)(C(=O)NO)S(C)(=O)=O)C3)c(F)c1` (racemic) [RE9, (RS)-4-(6-(2-fluoro-4-methylphenyl)-3-oxo-1H-pyrrolo[1,2-c]imidazol-2(3H)-yl)-N-hydroxy-2-methyl-2-(methylsulfonyl)butanamide], the MIC in the experiment on K. pneumoniae A-651 was determined as 2 µg/mL (≈ 4.72 µM); with P. aeruginosa ATCC27853, 0.5 µg/mL (≈ 1.18 µM); in the experiment with E. coli ATCC25922 it was 0.125 µg/mL (≈ 0.295 µM).

On to `C[C@@](CCN1Cc2cc(C#Cc3ccc(C4(CN)CC4)cc3)cn2C1=O)(C(=O)NO)S(C)(=O)=O.O=CO` [Example 8, (R)-4-(6-((4-(1-(aminomethyl)cyclopropyl)phenyl)ethynyl)-3-oxo-1H-pyrrolo[1,2-c]imidazol-2(3H)-yl)-N-hydroxy-2-methyl-2-(methylsulfonyl)butanamide formate], for which the minimal inhibitory concentration (MIC) in the experiment on K. pneumoniae A-651 was determined as 8 µg/mL; with P. aeruginosa ATCC27853, 4 µg/mL; in the experiment on E. coli ATCC25922, 8 µg/mL.

`C[C@@](CCN1Cc2cc(C#Cc3ccc(COC(N)=O)cc3)cn2C1=O)(C(=O)NO)S(C)(=O)=O` [Example 32, (R)-4-((2-(4-(hydroxyamino)-3-methyl-3-(methylsulfonyl)-4-oxobutyl)-3-oxo-2,3-dihydro-1H-pyrrolo[1,2-c]imidazol-6-yl)ethynyl)benzyl carbamate]: the MIC in the experiment with K. pneumoniae A-651 was 0.25 µg/mL (≈ 0.512 µM); in the experiment with P. aeruginosa ATCC27853, 0.5 µg/mL (≈ 1.02 µM); in the experiment with E. coli ATCC25922, no more than 0.063 µg/mL.

Regarding `C[C@@](CCN1Cc2cc(C#CC#C[C@@H]3CC[C@@H](N)CO3)cn2C1=O)(C(=O)NO)S(C)(=O)=O` [Example 65, (R)-4-(6-(((2S,5R)-5-aminotetrahydro-2H-pyran-2-yl)buta-1,3-diyn-1-yl)-3-oxo-1H-pyrrolo[1,2-c]imidazol-2(3H)-yl)-N-hydroxy-2-methyl-2-(methylsulfonyl)butanamide], the MIC in the experiment with K. pneumoniae A-651 was determined as 8 µg/mL (≈ 17.3 µM); with P. aeruginosa ATCC27853 it was 1 µg/mL (≈ 2.16 µM); with E. coli ATCC25922 it was 2 µg/mL (≈ 4.32 µM).
